Measured values: patent US20210030802A1, “GLUCOCORTICOID-RESISTANT LEUKOCYTES AND THEIR USE IN THE TREATMENT OF CANCERS AND VIRUSES” (CONSTANT BIOTECHNOLOGY, LLC, priority 2018, published 2021)

T1: HSD11B2 (Homo sapiens, UniProt P80365)
T1 construct: expressed in transfected cells
T1 sequence (P80365 1-405): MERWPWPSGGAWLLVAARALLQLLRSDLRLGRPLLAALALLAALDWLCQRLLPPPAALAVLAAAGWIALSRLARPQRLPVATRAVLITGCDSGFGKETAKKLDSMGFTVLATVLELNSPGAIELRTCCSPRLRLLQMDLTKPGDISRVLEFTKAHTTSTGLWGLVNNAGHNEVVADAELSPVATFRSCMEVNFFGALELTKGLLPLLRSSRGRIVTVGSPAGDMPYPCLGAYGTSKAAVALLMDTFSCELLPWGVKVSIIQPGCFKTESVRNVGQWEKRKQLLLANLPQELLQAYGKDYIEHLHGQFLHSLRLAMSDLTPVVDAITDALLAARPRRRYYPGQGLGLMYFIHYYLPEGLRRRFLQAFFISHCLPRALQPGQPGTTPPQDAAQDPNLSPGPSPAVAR

B1: wtExon1-none: modified HSD11B2 gene wherein approximately exon 1 was not codon modified but remained wild type (SEQ ID No.: 31) (nucleic acid)
DNA: CCCCTCACTCGGCGCGATCTAGATCTCGAATCGCCAGCCCGCTGGGCCGCCATGGAGCGCTGGCCTTGGCCGTCGGGCGGCGCCTGGCTGCTCGTGGCTGCCCGCGCGCTGCTGCAGCTGCTGCGCTCAGACCTGCGTCTGGGCCGCCCGCTGCTGGCGGCGCTGGCGCTGCTGGCCGCGCTCGACTGGCTGTGCCAGCGCCTGCTGCCCCCGCCGGCCGCACTCGCCGTGCTGGCCGCCGCCGGCTGGATCGCGTTGTCCCGCCTGGCGCGCCCGCAGCGCCTGCCGGTGGCCACTCGCGCGGTGCTCATCACCGGTTGTGACTCTGGTTTTGGTAAGGAGACGGCTAAGAAACTGGACTCCATGGGTTTCACGGTGCTGGCTACCGTATTGGAGTTGAACAGCCCTGGTGCTATCGAGCTGCGTACCTGCTGCTCCCCTCGTCTAAGGCTGCTGCAGATGGACCTGACCAAACCAGGAGACATTAGCCGTGTGCTAGAGTTCACCAAGGCTCACACCACCAGCACCGGTCTGTGGGGTCTCGTCAACAACGCAGGTCACAATGAAGTAGTTGCTGATGCAGAGCTGTCTCCAGTGGCTACTTTCCGTAGCTGCATGGAGGTGAATTTCTTTGGTGCACTCGAGCTGACCAAGGGTCTCCTGCCTCTGCTGCGTAGCTCAAGGGGTCGTATCGTGACTGTGGGAAGCCCAGCAGGAGACATGCCATATCCATGCTTGGGAGCTTATGGAACCTCCAAAGCAGCTGTGGCACTACTCATGGACACATTCAGCTGTGAACTCCTTCCTTGGGGAGTCAAGGTCAGCATCATCCAGCCTGGTTGCTTCAAGACAGAGTCAGTGAGAAACGTGGGTCAGTGGGAAAAGCGTAAGCAATTGCTGCTGGCTAACCTGCCTCAAGAGCTGCTGCAGGCTTACGGTAAGGACTACATCGAGCACTTGCATGGACAGTTCCTGCACTCGCTACGTCTGGCTATGTCCGACCTCACCCCAGTTGTAGATGCTATCACAGATGCACTGCTGGCAGCTAGGCCTCGTCGTCGTTATTACCCTGGTCAGGGTCTGGGACTCATGTACTTCATCCACTACTACCTGCCTGAAGGTCTGAGGCGTCGTTTCCTGCAGGCTTTCTTCATCAGTCACTGTCTGCCTCGAGCACTGCAGCCTGGTCAGCCTGGTACTACCCCACCACAGGACGCAGCTCAGGACCCAAACCTGAGCCCTGGTCCTTCCCCAGCAGTGGCTAGGTGACCTGAAAAAGGGGTACCTTTAAGACCAATGACTTACAAGGCAGCTGTAG
modifications: wtExon1-none

Experiments:
RS4;11 cells = assay: Survival of lenti-transduced cells in presence of steroids with or without HSD inhibitor (CELLTITER-GLO); assay type: cell-based, human; conditions: HSD11B2-transduced RS4;11 cells; for Effect of HSD inhibitor on steroid protection of transduced cells: DEX or PRED, carbenoxolone 1 μM and 10 μM; for Reversal of protection against dexamethasone by HSD inhibitor / Reversal of protection against prednisolone by HSD inhibitor: posaconazole 1 μM, carbenoxolone 10 μM or 1 μM
HSD11B1 = target: T2, HSD11B1 (Homo sapiens, UniProt P28845); assay: Effect of HSD inhibitor on steroid degradation by HSD11B1-transduced stimulated leukocytes; assay type: cell-based; conditions: posaconazole 7 μM
T2 construct: expressed in transfected cells
T2 sequence (P28845 whole entry): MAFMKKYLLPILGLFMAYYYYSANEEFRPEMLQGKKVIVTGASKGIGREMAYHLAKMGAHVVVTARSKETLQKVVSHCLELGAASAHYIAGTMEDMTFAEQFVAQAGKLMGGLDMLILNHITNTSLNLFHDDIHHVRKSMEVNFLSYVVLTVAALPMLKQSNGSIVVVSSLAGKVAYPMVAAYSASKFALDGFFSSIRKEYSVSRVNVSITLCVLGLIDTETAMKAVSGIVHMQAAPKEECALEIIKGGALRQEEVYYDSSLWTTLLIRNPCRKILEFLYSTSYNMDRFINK

HSD11B2 = target: T1, HSD11B2; assay: Effect of HSD inhibitor on steroid degradation by HSD11B2-transduced stimulated leukocytes; assay type: cell-based; conditions: posaconazole 7 μM
stimulated leukocytes [1] = assay: Steroid degradation by lentivirally transduced stimulated leukocytes, steroid detected by ELISA; assay type: cell-based, human
stimulated leukocytes [2] = assay: Conversion of cortisol to cortisone by transduced stimulated leukocytes, UHPLC-Mass Spectrometry; assay type: cell-based, human
Procedure: Human peripheral blood leukocytes (HPBL) were prepared by density gradient centrifugation of anti-coagulated human blood (Cincinnati Children's Hospital Cell Processing Core). HPBL were stimulated with CYTOSTIM™, inteleukin 2 (IL-2) in TEXMACS™ media (all reagents, Miltenyi Biotech) according to manufacturer's instructions for three days. […] After stimulation, the entire population of stimulated cells (“stimulated leukocytes”) were cryopreserved in cell freezing media which contained dimethyl sulfoxide (DMSO). Prior to experiments, cryopreserved stimulated leukocytes were thawed, washed twice and cultured in TEXMACS™ media supplemented with 10% (v/v) heat inactivated fetal bovine serum (HI-FBS, VWR). After an overnight incubation, typical cell viability post-thaw was greater than 95% as determined by Trypan blue dye exclusion. Post-thaw, cells were cultured overnight prior to transduction with lentivirus. […]
Viral copy number (VCN) was assessed on cell pellets by real-time polymerase chain reaction (RT-PCR) by extracting the genomic DNA and using primers and probes for the R-U5 region of the lentiviral vector. VCN was determined using a cGMP testing protocol conducted by the Translational Trials Support & Development Laboratory of Cincinnati Children's Hospital. […] To permit direct comparison of the intrinsic activity of each enzyme construct—independent of any variability of target cell transduction or number of transduced cells in an experimental arm—VCN values were combined with the number of live cells measured at the end of incubation to adjust data to reflect a uniform level of cells carrying the transgene.
Cortisol and cortisone levels in supernatants were quantified by the Michigan Regional Comprehensive Metabolomics Resource Core at the University of Michigan, Ann Arbor, Mich., in a delta 4 (D4-) steroid hormone assay using combined ultra-high pressure liquid chromatography and triple quadrapole (UHPLC-QQQ) mass spectrometry. […]

Row | Molecule | Effect of HSD inhibitor on steroid protection of transduced cells (RS4;11 cells) | Effect of HSD inhibitor on steroid protection of transduced cells (RS4;11 cells; listed as Carbenoxolone) | Reversal of protection against dexamethasone by HSD inhibitor (RS4;11 cells) | Reversal of protection against prednisolone by HSD inhibitor (RS4;11 cells) | Inhibition of HSD11B1 degradation of steroids (HSD11B1) | Inhibition of HSD11B1 depletion (conversion) of prednisolone and dexamethasone (HSD11B1) | Inhibition of steroid degradation by HSD11B2 genes (HSD11B2, B2-Tag and wtExon1-none) (HSD11B2) | Cortisol levels at end of assay (stimulated leukocytes [1]; cortisol 100 nM, ELISA) | Degradation of cortisol, prednisolone and dexamethasone (stimulated leukocytes [1]; steroid 100 nM, 18 to 24 hours, adjusted for number of transgene bearing cells) | Rate of conversion of prednisolone or dexamethasone (stimulated leukocytes [1]; transduced leukocytes) | Generation of cortisone from cortisol (stimulated leukocytes [2]; UHPLC-Mass Spectrometry) | Rate of cortisol depletion indirectly calculated from cortisone production (stimulated leukocytes [2]; assuming no inter-conversion) | Rate of conversion of cortisol to cortisone (stimulated leukocytes [2]; transduced leukocytes)
1 | CC1(C)[C@@H](OC(=O)CCC(=O)O)CC[C@]2(C)[C@H]3C(=O)C=C4[C@@H]5C[C@@](C)(C(=O)O)CC[C@]5(C)CC[C@@]4(C)[C@]3(C)CC[C@@H]12 [carbenoxolone] | reduced or eliminated | showed a dose response effect | Protection was reversed | Protection was reversed | – | – | – | – | – | – | – | – | –
2 | CC[C@@H]([C@H](C)O)n1ncn(-c2ccc(N3CCN(c4ccc(OC[C@@H]5CO[C@@](Cn6cncn6)(c6ccc(F)cc6F)C5)cc4)CC3)cc2)c1=O [posaconazole] | reduced or eliminated | – | Protection was reversed | Protection was reversed | also inhibited | strongly inhibited | inhibited | – | – | – | – | – | –
3 | B1 | – | – | – | – | – | – | – | below the limit of quantitation | degraded the steroids | at least 2000 pg/hour/10^5 of genetically modified leukocytes | generated cortisone | about 1,014 pg/hr/10e5 copies of the transgene | 800-1200 pg/hour/10^5 of genetically modified leukocytes
